≈ marks a conversion by molar mass, not a printed value. Read-outs that look alike come from different tables or passages of the source.
Experiments:
S. aureus NCTC 12493 = assay: in vitro antistaphylococcal activity, broth microdilution method (MIC/MBC); assay type: cell-based, Staphylococcus aureus; details: for MIC / MBC: Staphylococcus aureus; for MIC: NCTC12493, lowest concentration inhibiting visible growth; for MBC: NCTC12493, lowest concentration reducing viability of inoculum by ≥99.9%, 24 h at 37° C.
[1] = tested on: M. tuberculosis H37Rv (ATCC 25618 Wild-type); assay: microbe, parasite or virus in culture; assay type: cell-based
[2] = tested on: M. tuberculosis HN-878 (wild-type); assay: microbe, parasite or virus in culture; assay type: cell-based
[3] = Mycobacterium tuberculosis, 120 h; read-out: Mycobacterium tuberculosis strain MIC90, H37Rv
[4] = Mycobacterium tuberculosis, 120 h; read-out: Mycobacterium tuberculosis strain MIC90, HN-878

Compound	MBC value relative to MIC value (S. aureus NCTC 12493)	MIC (S. aureus NCTC 12493)	MBC (S. aureus NCTC 12493)	MIC90 [1, 3]	MIC90 [2, 4]	MIC90 ([1]; Mycobacterium tuberculosis, 120 h, read-out: Mycobacterium tuberculosis strain MIC90, H37Rv)	MIC90 ([2]; Mycobacterium tuberculosis, 120 h, read-out: Mycobacterium tuberculosis strain MIC90, HN-878)
O=c1[nH]cc(F)c(=O)[nH]1 [Compound 5-FU, 5-Fluorouracil, reference compound]	8 times	2 µg/mL (≈ 15.4 µM)	16 µg/mL (≈ 123 µM)	–	–	–	–
CO[C@H]1/C=C/O[C@@]2(C)Oc3c(C)c(O)c4c(O)c(c(CNCCOCCOCCOCn5cc(CCCn6cc(F)c(=O)[nH]c6=O)nn5)c(O)c4c3C2=O)NC(=O)/C(C)=C\C=C\[C@H](C)[C@H](C)[C@@H](C)[C@@H](O)[C@@H](C)[C@H](OC(C)=O)[C@@H]1C [Compound 3C]	–	–	–	0.0034 µM (≈ 0.00377 µg/mL)	0.07 ± 0.042 µM (≈ 0.0776 µg/mL)	–	–
CO[C@H]1/C=C/O[C@@]2(C)Oc3c(C)c(O)c4c(O)c(c(CNCCOCCOCCOCn5cc(CCn6cc(F)c(=O)[nH]c6=O)nn5)c(O)c4c3C2=O)NC(=O)/C(C)=C\C=C\[C@H](C)[C@H](C)[C@@H](C)[C@@H](O)[C@@H](C)[C@H](OC(C)=O)[C@@H]1C [Compound 3B]	the same	2 µg/mL (≈ 1.83 µM)	2 µg/mL (≈ 1.83 µM)	0.0039 µM (≈ 0.00427 µg/mL)	0.096 ± 0.064 µM (≈ 0.105 µg/mL)	–	–
NNC(=O)c1ccncc1 [Isoniazid, reference compound]	–	–	–	0.28 µM (≈ 0.0384 µg/mL)	0.29 µM (≈ 0.0398 µg/mL)	–	–
CO[C@H]1/C=C/O[C@@]2(C)Oc3c(C)c(O)c4c(O)c(c(CNCCCn5cc(CCn6cc(F)c(=O)[nH]c6=O)nn5)c(O)c4c3C2=O)NC(=O)/C(C)=C\C=C\[C@H](C)[C@H](C)[C@@H](C)[C@@H](O)[C@@H](C)[C@H](OC(C)=O)[C@@H]1C [Compound 3A]	the same	1 µg/mL (≈ 1.01 µM)	1 µg/mL (≈ 1.01 µM)	0.0039 µM (≈ 0.00386 µg/mL)	0.059 ± 0.01 µM (≈ 0.0584 µg/mL)	–	–
CO[C@H]1/C=C/O[C@@]2(C)Oc3c(C)c(O)c4c(O)c(c(/C=N/N5CCN(C)CC5)c(O)c4c3C2=O)NC(=O)/C(C)=C\C=C\[C@H](C)[C@H](O)[C@@H](C)[C@@H](O)[C@@H](C)[C@H](OC(C)=O)[C@@H]1C [Rifampicin, reference compound]	16 times	0.25 µg/mL (≈ 0.304 µM)	4 µg/mL (≈ 4.86 µM)	–	–	0.0045 µM (≈ 0.0037 µg/mL)	0.02 µM (≈ 0.0165 µg/mL)
